The test system of one series is Canidae. The following applies: for NOEL / LEL: Dog Other.
The test system of a further series is Pontoscolex corethrurus. To be noted: acute; mortality.
The next series has as its system Apis mellifera. To be noted: acute, mortality.
The mark [1] stands for this setting: chronic, duration: 2 years, oral, diet.
[2] abbreviates: short-term, duration: 28 days, mortality.
Where [3] appears, read: subchronic, duration: 90 days, oral, diet, F, Not specified, clinical chemistry.

From EPA's ToxValDB 9.5 come the findings set out here.

A word on the NOAEL: it is the highest dose or exposure tested at which no adverse effect was seen. By LOAEL is commonly meant the lowest dose or exposure tested at which an adverse effect was seen.

Regarding `[Ca+2].[I-].[I-].[O-2].[O-2].[O-2].[O-2].[O-2].[O-2]` [Iodic acid (HIO3), calcium salt (2:1)], the LEL came to 8 mg/kg-day in the series with Sus scrofa (repeat dose other, Not specified, no effects); 8 mg/kg-day in the series with Sus scrofa (short-term, Not specified, no effects); 5 mg/kg-day in the series with Gallus gallus (repeat dose other, no effects); 5 mg/kg-day in the series with Gallus gallus (subchronic, duration: 35 days, oral, diet, M, no effects).
In turn, `CC(C)O` [Isopropanol] showed a no observed adverse effect level (NOAEL) with Oryctolagus sp. (reproduction developmental, duration: 13 days, oral, gavage, F, New Zealand, mortality) of 240 mg/kg-day.
Turning to `Cc1ccc(C(C)C)cc1O` [Isopropyl-o-cresol], in the series on Sus scrofa (subchronic, duration: 6 weeks, oral, diet, M/F, Not specified, no effects), the LEL came to 2000 mg/kg-day.
Regarding `CC(C)C1C2CCC1c1c(NC(=O)c3cn(C)nc3C(F)F)cccc12` (stereo not given) [Isopyrazam], the LC50 in the series on Colinus virginianus (acute, oral, diet, mortality) worked out at 1310 mg/kg-day. The LD50 is above 2000 mg/kg-day in the series with Colinus virginianus (acute, oral, mortality) and 2000 mg/kg-day with Rattus norvegicus (acute, oral, mortality). Besides, in the series on Colinus virginianus (reproduction developmental), the NOEC was determined as 32.5 mg/kg-day. The NOEL with Rattus norvegicus (chronic) turned out to be 41 mg/kg-day. In the series with Rattus norvegicus (chronic, duration: 2 years, organ weight), this compound registered an LOAEL of 5.5 mg/kg-day. Also, the no-observed-adverse-effect level (NOAEL) with Rattus norvegicus (developmental, development) was found to be 20 mg/kg-day; with Rattus norvegicus (reproduction developmental, duration: 2 years, body weight) it was 8 mg/kg-day.
As for `CS(=O)(=O)c1cc(C(F)(F)F)ccc1C(=O)c1cnoc1C1CC1` [Isoxaflutole], the no-observed-adverse-effect level (NOAEL) with Rattus norvegicus (chronic, duration: 2 years, histopathology: nonneoplastic) turned out to be 2 mg/kg-day; with Rattus norvegicus (reproduction developmental, organ weight), 2 mg/kg-day; in the series on Oryctolagus sp. (developmental, development) it was 5 mg/kg-day.
In turn, `CCCCCCCCCCCCN(C)C` [N,N-Dimethyldodecan-1-amine] gave an NOAEL with Rattus norvegicus (setting [1]) of 50 mg/kg-day, an NOAEL in the series with Rattus norvegicus (setting [2]) of 50 mg/kg-day and a no observed adverse effect level (NOAEL) (reproduction developmental) of 50 mg/kg-day.
In the series on Gallus gallus (subchronic, duration: 35 days, oral, diet, hematological), `NC(N)=NCC(=O)O` [N-(Aminoiminomethyl)glycine] registered an LEL of 1500 mg/kg-day.
In the case of `CN1CCCC1` [N-Methylpyrrolidine], the NOAEL in the series with Rattus norvegicus (setting [1]) amounted to 50 mg/kg-day, the no-observed-adverse-effect level (NOAEL) with Rattus norvegicus (setting [2]) amounted to 50 mg/kg-day and the no observed adverse effect level (NOAEL) (reproduction developmental) turned out to be 50 mg/kg-day.
For `CCCCCCCCC(=O)NCc1ccc(O)c(OC)c1` [N-Vanillylnonanamide], the no observed adverse effect level (NOAEL) with Rattus norvegicus (subchronic, duration: 90 days, oral, M/F) came out at 8.4 mg/kg-day. Further, for the setting “repeat dose other”, the NOEL stood at 8.4 mg/kg-day.
Take `COC(=O)[C@H](Cc1ccccc1)NC(=O)[C@H](CC(=O)O)NCCC(C)(C)C` [Neotame]: the no-observed-adverse-effect level (NOAEL) in the series with Canidae (chronic, duration: 52 weeks, oral, diet, M/F, Beagle, clinical chemistry) stood at 200 mg/kg-day.
In the series on Sus scrofa (subchronic, duration: 84 days, Not specified, no effects), `O=[N+]([O-])[O-]` [Nitrate] returned an NOAEL of 410 mg/kg-day. In addition, the NOEL in the series with Rattus norvegicus (chronic, duration: 2 years, growth) was 370 mg/kg-day; with Canidae (chronic, duration: 125 days, growth), 370 mg/kg-day.
Turning to `C[C@@H]1Cc2c(Cl)cc(C(=O)N[C@@H](Cc3ccccc3)C(=O)O)c(O)c2C(=O)O1` [Ochratoxin A], in the series with Sus scrofa (setting [3]), the lowest observed adverse effect level (LOAEL) was found to be 0.008 mg/kg-day. For the same compound, the LOEL with Sus scrofa (setting [3]) was determined as 0.008 mg/kg-day. Further, the LEL in the series with Gallus gallus (repeat dose other, oral, diet, organ weight) stood at 0.5 mg/kg-day; in the series on Canidae (short-term, duration: 14 days, histopathology: nonneoplastic), 0.2 mg/kg-day.
As to `NC[C@@H]1O[C@H](O[C@H]2[C@@H](O)[C@H](O[C@@H]3[C@@H](O)[C@H](N)C[C@H](N)[C@H]3O[C@H]3O[C@H](CO)[C@@H](O)[C@H](O)[C@H]3N)O[C@@H]2CO)[C@H](N)[C@@H](O)[C@@H]1O.O=S(=O)(O)O` [Paromomycin sulfate], the NOEL in the series on Canidae (chronic, oral) came out at 3.4 mg/kg-day.
`CCc1ncc(C)nc1CC` [Pyrazine, 2,3-diethyl-5-methyl-] gave an LC50 in the series on Pontoscolex corethrurus of 228 mg/kg.
Still for that read-out and setting: in the case of `CCc1nccnc1OC` [Pyrazine, 2-ethyl-3-methoxy-] it was 243 mg/kg.
For the compound `CC1=C(C=O)C(C)(C)CC=C1` [Safranal], the NOEL with Rattus norvegicus (subchronic, duration: 90 days) is 10 mg/kg-day. Also, the LEL in the series with Rattus norvegicus (subchronic, duration: 90 days, oral, gavage, F, no effects) is 120 mg/kg-day; with Canidae (subchronic, duration: 90 days, no effects) it was 120 mg/kg-day.
Turning to `O=C([O-])c1ccccc1.[Na+]` [Sodium benzoate], the LEL was 36000 mg/kg-day in the series on Sus scrofa (repeat dose other, oral, diet, M/F, Not specified, no effects); 36000 mg/kg-day with Sus scrofa (subchronic, duration: 36 days, oral, diet, Duroc, body weight); 36000 mg/kg-day in the series on Sus scrofa (subchronic, duration: 42 days, oral, diet, Not specified, body weight).
Consider `CC(c1ccc(C(F)(F)F)nc1)S(C)(=O)=NC#N` (stereo not given) [Sulfoxaflor], for which the LD50 is 0.146 µg/piece in the series with Apis mellifera (duration: 48 hours, oral, unspecified) and 0.397 µg/piece in the series with Apis mellifera (duration: 72 hours, dermal).
`CCc1nc(C)cs1` [Thiazole, 2-ethyl-4-methyl-] returned an LC50 in the series on Pontoscolex corethrurus of 193 mg/kg.
In the series on Oryctolagus sp. (developmental, development), `O=C(O)C(O)Cn1cncn1` (stereo not given) [Triazole lactic acid] registered an NOAEL of 30 mg/kg-day.
As for `CCCC(CCC)C(=O)O` [Valproic acid], where the note is “repeat dose other, development”, the no observed adverse effect level (NOAEL) worked out at 600 mg/kg-day.
Consider `Cc1c(C)c2c(c(C)c1OC(=O)CCC(=O)O)CC[C@@](C)(CCC[C@H](C)CCC[C@H](C)CCCC(C)C)O2` [d-alpha-Tocopheryl succinate], for which the no-observed-adverse-effect level (NOAEL) in the series on Rattus norvegicus (subchronic, duration: 90 days, clinical chemistry) was 265 mg/kg-day.
In turn, `NCCS(=O)(=O)O` [l-Taurine] gave an NOAEL in the series on Rattus norvegicus (subchronic, duration: 13 weeks, oral, gavage, M/F, Crj:CD, no effects) of 1000 mg/kg-day.
